According to US20220119354A1, “DIAMINO-SUBSTITUTED PYRIDINES AND PYRIMIDINES AS HERBICIDES” (FMC Corporation, priority 2019, published 2022):

Tests used:
Format in all cases: in vivo
[1] = tested on: barnyardgrass (Echinochloa crus-galli); experiment: Test A postemergence, barnyardgrass; settings: 0 to 100 scale
Summary of the method: (§1)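 Compound, in a non-phytotoxic solvent blend containing surfactant, is sprayed onto soil immediately after sowing or onto young plants (one- to two-leaf, 2–10 cm). After roughly 10 d under greenhouse conditions, injury is judged by eye relative to untreated plants on a 0–100 control scale.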

[2] = tested on: corn (Zea mays); experiment: Test A postemergence, corn; settings: 0 to 100 scale
Summary of the method: as §1

[3] = tested on: pigweed (Amaranthus retroflexus); experiment: Test A preemergence, pigweed; settings: 0 to 100 scale; for Pigweed plant response rating: 0 is no effect, 100 is complete control
Summary of the method: as §1

[4] = tested on: barnyardgrass (Echinochloa crus-galli); experiment: Test A preemergence, barnyardgrass; settings: 0 to 100 scale; for Barnyardgrass plant response rating: 0 is no effect, 100 is complete control
Summary of the method: as §1

[5] = tested on: rice (Oryza sativa); experiment: Test B flooded paddy test, rice; settings: Flood, 250 g ai/ha, applied to paddy water, 2-leaf stage, visual evaluation after 13 to 15 d
Summary of the method: (§2)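 Visual injury scores run from 0 (no effect) to 100 (complete control), assigned by comparison with controls 13 to 15 d after treatment. Treatment went into floodwater standing 3 cm over the soil of pots holding 2-leaf plants.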

[6] = tested on: wheat (Triticum aestivum); experiment: Test A postemergence, wheat; settings: 0 to 100 scale
Summary of the method: as §1

[7] = tested on: kochia (Kochia scoparia); experiment: Test A preemergence, kochia; settings: 0 to 100 scale; for Kochia plant response rating: 0 is no effect, 100 is complete control
Summary of the method: as §1

[8] = tested on: foxtail, giant (Setaria faberii); experiment: Test A postemergence, giant foxtail; settings: 0 to 100 scale
Summary of the method: as §1

[9] = tested on: pigweed (Amaranthus retroflexus); experiment: Test A postemergence, pigweed; settings: 0 to 100 scale
Summary of the method: as §1

[10] = tested on: kochia (Kochia scoparia); experiment: Test A postemergence, kochia; settings: 0 to 100 scale
Summary of the method: as §1

[11] = tested on: barnyardgrass (Echinochloa crus-galli); experiment: Test B flooded paddy test, barnyardgrass; settings: Flood, 250 g ai/ha, applied to paddy water, 2-leaf stage, visual evaluation after 13 to 15 d
Summary of the method: as §2

[12] = tested on: sedge, umbrella (small-flower umbrella sedge, Cyperus difformis); experiment: Test B flooded paddy test, umbrella sedge; settings: Flood, 250 g ai/ha, applied to paddy water, 2-leaf stage, visual evaluation after 13 to 15 d
Summary of the method: as §2

[13] = tested on: ryegrass, Italian (Lolium multiflorum); experiment: Test A preemergence, Italian ryegrass; settings: 0 to 100 scale; for Ryegrass, Italian plant response rating: 0 is no effect, 100 is complete control
Summary of the method: as §1

[14] = tested on: blackgrass (Alopecurus myosuroides); experiment: Test A postemergence, blackgrass; settings: 0 to 100 scale
Summary of the method: as §1

[15] = tested on: foxtail, giant (Setaria faberii); experiment: Test A preemergence, giant foxtail; settings: 0 to 100 scale; for Foxtail, Giant plant response rating: 0 is no effect, 100 is complete control
Summary of the method: as §1

[16] = tested on: ragweed (common ragweed, Ambrosia elatior); experiment: Test A postemergence, ragweed; settings: 0 to 100 scale
Summary of the method: as §1

[17] = tested on: ducksalad (Heteranthera limosa); experiment: Test B flooded paddy test, ducksalad; settings: Flood, 250 g ai/ha, applied to paddy water, 2-leaf stage, visual evaluation after 13 to 15 d
Summary of the method: as §2

[18] = tested on: ragweed (common ragweed, Ambrosia elatior); experiment: Test A preemergence, ragweed; settings: 0 to 100 scale; for Ragweed plant response rating: 0 is no effect, 100 is complete control
Summary of the method: as §1

[19] = tested on: galium (catchweed bedstraw, Galium aparine); experiment: Test A postemergence, galium; settings: 0 to 100 scale
Summary of the method: as §1

[20] = tested on: ryegrass, Italian (Lolium multiflorum); experiment: Test A postemergence, Italian ryegrass; settings: 0 to 100 scale
Summary of the method: as §1

[21] = 125 g ai/ha, 0 no effect, 100 complete control
[22] = 500 g ai/ha, 0 no effect, 100 complete control
[23] = 500 g ai/ha, 0 is no effect, 100 is complete control

CC(Nc1ncc(C(F)(F)F)c(N)n1)c1csc2ccccc12 (stereo not drawn) [Compound 40]
80: Plant response rating, Barnyardgrass ([4]; 500 g ai/ha) | Plant response rating, Pigweed ([9]; 125 g ai/ha)
100: Pigweed plant response rating ([3]; 125 g ai/ha) | Plant response rating, Pigweed ([3]; 500 g ai/ha) | Plant response rating, Pigweed ([9]; 500 g ai/ha) | Plant response rating, Ryegrass, Italian ([13]; 500 g ai/ha) | Plant response rating, Ragweed ([18]; 500 g ai/ha)
10: Plant response rating, Corn ([2]; 500 g ai/ha) | Plant response rating, Blackgrass ([14]; 500 g ai/ha) | Foxtail, Giant plant response rating ([15]; 125 g ai/ha)
40: Plant response rating, Sedge, Umbrella (0 to 100 scale, 0 is no effect, 100 is complete control) [12]
30: Barnyardgrass plant response rating ([4]; 125 g ai/ha) | Plant response rating, Ragweed ([16]; 125 g ai/ha) | Plant response rating, Ryegrass, Italian ([20]; 125 g ai/ha)
50: Plant response rating, Kochia ([10]; 125 g ai/ha)
20: Plant response rating, Foxtail, Giant ([8]; 500 g ai/ha) | Plant response rating, Barnyardgrass (0 to 100 scale, 0 is no effect, 100 is complete control) [11] | Ryegrass, Italian plant response rating ([13]; 125 g ai/ha) | Plant response rating, Ducksalad (0 to 100 scale, 0 is no effect, 100 is complete control) [17]
60: Plant response rating, Barnyardgrass ([1]; 500 g ai/ha) | Kochia plant response rating ([7]; 125 g ai/ha) | Plant response rating, Kochia ([7]; 500 g ai/ha) | Plant response rating, Ragweed ([16]; 500 g ai/ha) | Plant response rating, Galium ([19]; 125 g ai/ha)
0: Plant response rating, Barnyardgrass ([1]; 125 g ai/ha) | Plant response rating, Corn ([2]; 125 g ai/ha) | Plant response rating, Rice (0 to 100 scale, 0 is no effect, 100 is complete control) [5] | Plant response rating, Wheat ([6]; 125 g ai/ha) | Plant response rating, Wheat ([6]; 500 g ai/ha) | Plant response rating, Foxtail, Giant ([8]; 125 g ai/ha) | Plant response rating, Blackgrass ([14]; 125 g ai/ha) | Plant response rating, Ryegrass, Italian ([20]; 500 g ai/ha)
90: Plant response rating, Kochia ([10]; 500 g ai/ha) | Plant response rating, Foxtail, Giant ([15]; 500 g ai/ha) | Ragweed plant response rating ([18]; 125 g ai/ha) | Plant response rating, Galium ([19]; 500 g ai/ha)

CC(Nc1ncc(C(F)(F)F)c(N)n1)c1cc2ccc(Cl)cc2s1 (racemic) [Compound 70]
30: Pigweed plant response rating ([3]; 125 g ai/ha) | Barnyardgrass plant response rating ([4]; 500 g ai/ha) | Plant response rating, Blackgrass [14, 22]
90: Pigweed plant response rating ([3]; 500 g ai/ha) | Ragweed plant response rating ([18]; 500 g ai/ha)
50: Plant response rating, Kochia [10, 21] | Foxtail, Giant plant response rating ([15]; 500 g ai/ha) | Plant response rating, Ragweed [16, 22]
80: Plant response rating, Kochia [10, 22] | Plant response rating, Galium [19, 22]
20: Plant response rating, Barnyardgrass [1, 21] | Ragweed plant response rating ([18]; 125 g ai/ha)
40: Kochia plant response rating ([7]; 500 g ai/ha)
0: Plant response rating, Corn [2, 21] | Plant response rating, Corn [2, 22] | Barnyardgrass plant response rating ([4]; 125 g ai/ha) | Plant response rating, Rice (0 to 100 scale, 0 is no effect, 100 is complete control) [5] | Plant response rating, Wheat [6, 21] | Plant response rating, Wheat [6, 22] | Kochia plant response rating ([7]; 125 g ai/ha) | Plant response rating, Foxtail, Giant [8, 21] | Plant response rating, Barnyardgrass (0 to 100 scale, 0 is no effect, 100 is complete control) [11] | Plant response rating, Sedge, Umbrella (0 to 100 scale, 0 is no effect, 100 is complete control) [12] | Ryegrass, Italian plant response rating ([13]; 125 g ai/ha) | Ryegrass, Italian plant response rating ([13]; 500 g ai/ha) | Plant response rating, Blackgrass [14, 21] | Foxtail, Giant plant response rating ([15]; 125 g ai/ha) | Plant response rating, Ragweed [16, 21] | Plant response rating, Ducksalad (0 to 100 scale, 0 is no effect, 100 is complete control) [17] | Plant response rating, Galium [19, 21] | Plant response rating, Ryegrass, Italian [20, 21] | Plant response rating, Ryegrass, Italian [20, 22]
70: Plant response rating, Barnyardgrass [1, 22]
60: Plant response rating, Foxtail, Giant [8, 22]
100: Plant response rating, Pigweed [9, 21] | Plant response rating, Pigweed [9, 22]

CC(Nc1ncc(C(F)(F)F)c(N)n1)c1coc2cc(F)ccc12 (racemic) [Compound 51]
60: Ryegrass, Italian plant response rating ([13]; 125 g ai/ha)
0: Plant response rating, Barnyardgrass [1, 21] | Plant response rating, Corn [2, 21] | Plant response rating, Rice (0 to 100 scale, 0 is no effect, 100 is complete control) [5] | Plant response rating, Wheat [6, 21] | Plant response rating, Barnyardgrass (0 to 100 scale, 0 is no effect, 100 is complete control) [11] | Plant response rating, Sedge, Umbrella (0 to 100 scale, 0 is no effect, 100 is complete control) [12] | Plant response rating, Blackgrass [14, 21] | Plant response rating, Ducksalad (0 to 100 scale, 0 is no effect, 100 is complete control) [17]
80: Plant response rating, Kochia [10, 21] | Ryegrass, Italian plant response rating ([13]; 500 g ai/ha)
40: Barnyardgrass plant response rating ([4]; 125 g ai/ha)
90: Pigweed plant response rating ([3]; 125 g ai/ha) | Kochia plant response rating ([7]; 125 g ai/ha) | Kochia plant response rating [10, 23] | Foxtail, Giant plant response rating ([15]; 500 g ai/ha) | Plant response rating, Ragweed [16, 21] | Galium plant response rating [19, 23]
70: Plant response rating, Galium [19, 21]
20: Plant response rating, Foxtail, Giant [8, 21]
30: Wheat plant response rating [6, 23] | Plant response rating, Ryegrass, Italian [20, 21]
100: Pigweed plant response rating ([3]; 500 g ai/ha) | Barnyardgrass plant response rating ([4]; 500 g ai/ha) | Kochia plant response rating ([7]; 500 g ai/ha) | Plant response rating, Pigweed [9, 21] | Pigweed plant response rating [9, 23] | Ragweed plant response rating [16, 23] | Ragweed plant response rating ([18]; 125 g ai/ha) | Ragweed plant response rating ([18]; 500 g ai/ha)
10: Corn plant response rating [2, 23] | Blackgrass plant response rating [14, 23] | Foxtail, Giant plant response rating ([15]; 125 g ai/ha)
50: Barnyardgrass plant response rating [1, 23] | Foxtail, Giant plant response rating [8, 23] | Ryegrass, Italian plant response rating [20, 23]

CC[C@@H](Nc1ncc(C(F)(F)F)c(N)n1)c1coc2ccccc12 [Compound 80]
10: Plant response rating, Rice (0 to 100 scale, 0 is no effect, 100 is complete control) [5]
70: Ryegrass, Italian plant response rating ([13]; 125 g ai/ha) | Plant response rating, Blackgrass [14, 22] | Plant response rating, Galium [19, 21]
100: Plant response rating, Barnyardgrass [1, 22] | Pigweed plant response rating ([3]; 500 g ai/ha) | Barnyardgrass plant response rating ([4]; 500 g ai/ha) | Kochia plant response rating ([7]; 500 g ai/ha) | Plant response rating, Pigweed [9, 21] | Plant response rating, Pigweed [9, 22] | Ryegrass, Italian plant response rating ([13]; 500 g ai/ha) | Foxtail, Giant plant response rating ([15]; 500 g ai/ha) | Ragweed plant response rating ([18]; 125 g ai/ha) | Ragweed plant response rating ([18]; 500 g ai/ha)
30: Plant response rating, Wheat [6, 21] | Plant response rating, Wheat [6, 22]
90: Pigweed plant response rating ([3]; 125 g ai/ha) | Barnyardgrass plant response rating ([4]; 125 g ai/ha) | Kochia plant response rating ([7]; 125 g ai/ha) | Plant response rating, Kochia [10, 22] | Plant response rating, Barnyardgrass (0 to 100 scale, 0 is no effect, 100 is complete control) [11] | Foxtail, Giant plant response rating ([15]; 125 g ai/ha) | Plant response rating, Ragweed [16, 21] | Plant response rating, Ragweed [16, 22] | Plant response rating, Galium [19, 22] | Plant response rating, Ryegrass, Italian [20, 22]
95: Plant response rating, Sedge, Umbrella (0 to 100 scale, 0 is no effect, 100 is complete control) [12]
50: Plant response rating, Corn [2, 22]
85: Plant response rating, Ducksalad (0 to 100 scale, 0 is no effect, 100 is complete control) [17]
80: Plant response rating, Kochia [10, 21]
20: Plant response rating, Corn [2, 21]
0: Plant response rating, Foxtail, Giant [8, 21] | Plant response rating, Foxtail, Giant [8, 22] | Plant response rating, Blackgrass [14, 21] | Plant response rating, Ryegrass, Italian [20, 21]
40: Plant response rating, Barnyardgrass [1, 21]
